Common to all, as to assay type: in vivo
The subject of assay [1] is cotton aphids (Aphis gossypii). Put plainly: Test method 6: sprayed cucumber seedling with artificial rainfall, cotton aphids. As to conditions: 1 ppm, spray 10 mL/seedling on cucumber, artificial rainfall 10 mm/hr for 1 hour, female adults released after one day, after 5 days, 25° C. How it is done: Next, an efficacy of the Type 1 crystal of Compound (1) on controlling harmful arthropods is shown by Test examples. The following tests were conducted at 25° C. Test compound is made to a formulation according to a similar method to that described in the Formulation example 1, and thereto is added water containing 0.02 v/v % of Shindain (registered trademark) to prepare a dilution containing a prescribed concentration of the test compound. Only the second true leaves of Cucumber (Cucumis sativus) seedling (on the developmental stage of the third true leaf) are retained, and the other leaves are cut off, and the dilutions are sprayed onto the seedling at a ratio of 10 mL/seedling. After the dilution, which is treated, is dried, rain is given to the cucumber seedling with an artificial rainfall device at 10 mm/hr for 1 hour. After one day, 10 cotton aphids (Aphis gossypii) female adults are released onto the seedling. After 5 days, the number of the surviving insects is examined and the controlling value is calculated by the following equation. […]

The test system of assay [2] is common house mosquitos (Culex pipiens pallens). In words: Test method 4: mosquito larvae released into dilution. Conditions: 24 h, last instar larvae in dilution, after 1 day, 25° C., read-out: mortality of insects. How it is done: (§1) Next, an efficacy of the Type 1 crystal of Compound (1) on controlling harmful arthropods is shown by Test examples. The following tests were conducted at 25° C.
Test compound is made to a formulation according to a similar method to that described in the Formulation example 1, and thereto is added water to prepare a dilution containing a prescribed concentration of the test compound.
Into the dilution, 30 common house mosquitos (Culex pipiens pallens) at the last instar larval stage are released, and after 1 day, the state of the common house mosquito larvae is examined, and the mortality of insects is calculated by the following equation.
Mortality (%)=(Number of dead insects/Number of tested insects)×100

The test system of assay [3] is diamondback moths (Plutella xylostella). Put plainly: Test method 3: sprayed cabbage leaf, diamondback moth larvae. As to conditions: 120 h, spray 20 mL/seedling on cabbage, second instar larvae, after 5 days, 25° C., read-out: mortality of insects. How it is done: as §1
(§2) Test compound is made to a formulation according to a similar method to that described in the Formulation example 1, and thereto is added water containing 0.03 v/v % of Shindain (registered trademark) to prepare a dilution containing a prescribed concentration of the test compound.
Cabbage (Brassicae oleracea) seedling (on the developmental stage of the second to third true leaf) is planted in a cup, and the dilutions are sprayed onto the seedling at a ratio of 20 mL/seedling. Thereafter, the stem and leaf thereof are cut out and then are placed into a cup that is lined with a filter paper. Five (5) diamondback moths (Plutella xylostella) at the second instar larval stage are released into the cup. After 5 days, the number of the surviving insects is counted, and the mortality of insects is calculated by the following equation.

The test system of assay [4] is brown planthoppers (Nilaparvata lugens). Put plainly: Test method 5: sprayed rice seedling, brown planthopper larvae. As to conditions: 144 h, spray 10 mL/seedling on rice, third instar larvae, after 6 days, 25° C., read-out: mortality of insects. How it is done: as §1, §2
Rice (Oryza sativa) seedling (on the developmental stage of the second leaf) is planted in a cup, and the dilutions are sprayed onto the seedling at a ratio of 10 mL/seedling. Thereafter, twenty (20) brown planthoppers (Nilaparvata lugens) at the third instar larval stage are released into the cup. After 6 days, the number of the surviving insects is counted, and the mortality of insects is calculated by the following equation.
Mortality (%)=(1−Number of surviving insects/20)×100

For assay [5], the system named is cotton aphids (Aphis gossypii). In words: Test method 1: foliar spray on cucumber seedling infested with cotton aphids. As to conditions: 500 ppm, spray 10 mL/seedling on cucumber, cotton aphids all stages, after 5 days, 25° C. How it is done: Next, an efficacy of the Type 1 crystal of Compound (1) on controlling harmful arthropods is shown by Test examples. The following tests were conducted at 25° C. Test compound is made to a formulation according to a similar method to that described in the Formulation example 1, and thereto is added water containing 0.03 v/v % of Shindain (registered trademark) to prepare a dilution containing a prescribed concentration of the test compound. Cucumber (Cucumis sativus) seedling (on the developmental stage of the second true leaf) is planted in a cup, and approximately 30 cotton aphids (Aphis gossypii) (all stages of life) are released onto the seedling. After one day, the dilutions are sprayed onto the seedling at a ratio of 10 mL/seedling. After 5 days, the number of the surviving insects is examined, and the controlling value is calculated by the following equation. […]

In assay [6] the test system is Argentine ant (Linepithema humile). In words: Test method 7: treated filter paper with sugar water, Argentine ant workers. As to conditions: 12.5 ppm, 0.7 ml on filter paper, after 6 days, 25° C. How it is done: as §1
(§3) Test compound is made to a formulation according to a similar method to that described in the Formulation example 1, and thereto is added 1.8 g of sucrose, followed by adding 3% sugar water to prepare a dilution containing a prescribed concentration of the test compound.
A filter paper having a diameter of 5.5 cm is spread on the bottom of the cup, and then 0.7 ml of the dilutons are added dropwise to the filter paper, and ten (10) Argentine ant (Linepithema humile) workers are released into the cup, and the cup is covered with the lid. After 6 days, the number of the dead and distressed individuals of Argentine ant workers are counted, and the ratio of distressed and dead insects (%) is calculated by the following equation.
(§4) Here the dead individual is one whose behavior has completely stopped, and a distressed individual is one that cannot stand up when placed on its back and also cannot walk.

In assay [7] the test system is common cutworms (Spodoptera litura). Put plainly: Test method 2: sprayed cabbage leaf, common cutworm larvae. As to conditions: 120 h, spray 20 mL/seedling on cabbage, second instar larvae, after 5 days, 25° C., read-out: mortality of insects. How it is done: as §1, §2
Cabbage (Brassicae oleracea) seedling (on the developmental stage of the second to third true leaf) is planted in a cup, and the dilutions are sprayed onto the seedling at a ratio of 20 mL/seedling. Thereafter, the stem and leaf thereof are cut out and then are placed into a cup that is lined with filter paper. Five (5) commom cutworms (Spodoptera litura) at the second instar larval stage are released into the cup. After 5 days, the number of the surviving insects is counted, and the mortality of insects is calculated by the following equation.
Mortality (%)=(1−Number of surviving insects/5)×100

Assay [8] relates to German cockroach (Blattella germanica). Put plainly: Test method 8: treated filter paper with sugar water, German cockroach male adults. Conditions: 0.8 ppm, 0.7 ml on filter paper, after 5 days, 25° C. How it is done:
as §1, §3
A filter paper having a diameter of 5.5 cm is spread on the bottom of the cup, and then 0.7 ml of the dilutions are added dropwise to the filter paper, and five (5) German cockroach (Blattella germanica) male adults are released into the cup, and the cup is covered with the lid. After 5 days, the number of the dead and distressed individuals of German cockroach male adults are counted, and the ratio of distressed and dead insects (%) is calculated by the following equation.
as §4

Molecules are shown by their SMILES.

For orientation: mortality means the share of the test organisms that died.

Take `CCS(=O)(=O)c1cc(C2CC2)cnc1-c1nc2cc(S(=O)(=O)C(F)(F)F)ccc2o1` [Type 1 crystal of Compound (1), 2-(5-cyclopropyl-3-(ethylsulfonyl)pyridin-2-yl)-5-((trifluoromethyl)sulfonyl)benzo[d]oxazole]: the controlling value in assay [1] is given as 40.5%; in assay [5] it was at least 90%. Also, the mortality at 3.5 ppm in assay [2] was at least 90%. In addition, the mortality at 500 ppm in assay [3] was at least 80%; in assay [4], at least 90%; in assay [7] it was at least 80%. The “ratio of distressed and dead insects” value in assay [6] and in assay [8] was 100% in each case.

As for `CCS(=O)(=O)c1cc(C2CC2)cnc1-c1nc2cc(S(=O)(=O)C(F)(F)F)ccc2o1` [amorphous of Compound (1), 2-(5-cyclopropyl-3-(ethylsulfonyl)pyridin-2-yl)-5-((trifluoromethyl)sulfonyl)benzo[d]oxazole], the “ratio of distressed and dead insects” value turned out to be 35% in assay [6] and 30% in assay [8].

The record behind these values is patent US20260144258A1, “CRYSTAL OF 2-(5-CYCLOPROPYL-3-(ETHYLSULFONYL)PYRIDIN-2-YL)-5-((TRIFLUOROMETHYL)SULFONYL)BENZO[D]OXAZOLE” (SUMITOMO CHEMICAL COMPANY, LIMITED, priority 2022, published 2026).
